Results published in PMC10794144, “A novel antibiotic class targeting the lipopolysaccharide transporter” (Nature, 2024).
Converted amounts (≈) assume the structure as drawn. Where two headings read alike, the source gives them in different places.

Experiments:
CYP3A4 = CYP3A4 (Homo sapiens, UniProt P08684); experiment: CYP inhibition; assay type: in vitro ADME
Xanthine oxidase = target: T1, Xanthine oxidase (Bos taurus, UniProt P80457); experiment: Off-target screening (CEREP); assay type: biochemical, bovine; conditions: read-out: percent inhibition
T1 construct: purchased Eurofins CEREP SA
T1 sequence (P80457 whole entry): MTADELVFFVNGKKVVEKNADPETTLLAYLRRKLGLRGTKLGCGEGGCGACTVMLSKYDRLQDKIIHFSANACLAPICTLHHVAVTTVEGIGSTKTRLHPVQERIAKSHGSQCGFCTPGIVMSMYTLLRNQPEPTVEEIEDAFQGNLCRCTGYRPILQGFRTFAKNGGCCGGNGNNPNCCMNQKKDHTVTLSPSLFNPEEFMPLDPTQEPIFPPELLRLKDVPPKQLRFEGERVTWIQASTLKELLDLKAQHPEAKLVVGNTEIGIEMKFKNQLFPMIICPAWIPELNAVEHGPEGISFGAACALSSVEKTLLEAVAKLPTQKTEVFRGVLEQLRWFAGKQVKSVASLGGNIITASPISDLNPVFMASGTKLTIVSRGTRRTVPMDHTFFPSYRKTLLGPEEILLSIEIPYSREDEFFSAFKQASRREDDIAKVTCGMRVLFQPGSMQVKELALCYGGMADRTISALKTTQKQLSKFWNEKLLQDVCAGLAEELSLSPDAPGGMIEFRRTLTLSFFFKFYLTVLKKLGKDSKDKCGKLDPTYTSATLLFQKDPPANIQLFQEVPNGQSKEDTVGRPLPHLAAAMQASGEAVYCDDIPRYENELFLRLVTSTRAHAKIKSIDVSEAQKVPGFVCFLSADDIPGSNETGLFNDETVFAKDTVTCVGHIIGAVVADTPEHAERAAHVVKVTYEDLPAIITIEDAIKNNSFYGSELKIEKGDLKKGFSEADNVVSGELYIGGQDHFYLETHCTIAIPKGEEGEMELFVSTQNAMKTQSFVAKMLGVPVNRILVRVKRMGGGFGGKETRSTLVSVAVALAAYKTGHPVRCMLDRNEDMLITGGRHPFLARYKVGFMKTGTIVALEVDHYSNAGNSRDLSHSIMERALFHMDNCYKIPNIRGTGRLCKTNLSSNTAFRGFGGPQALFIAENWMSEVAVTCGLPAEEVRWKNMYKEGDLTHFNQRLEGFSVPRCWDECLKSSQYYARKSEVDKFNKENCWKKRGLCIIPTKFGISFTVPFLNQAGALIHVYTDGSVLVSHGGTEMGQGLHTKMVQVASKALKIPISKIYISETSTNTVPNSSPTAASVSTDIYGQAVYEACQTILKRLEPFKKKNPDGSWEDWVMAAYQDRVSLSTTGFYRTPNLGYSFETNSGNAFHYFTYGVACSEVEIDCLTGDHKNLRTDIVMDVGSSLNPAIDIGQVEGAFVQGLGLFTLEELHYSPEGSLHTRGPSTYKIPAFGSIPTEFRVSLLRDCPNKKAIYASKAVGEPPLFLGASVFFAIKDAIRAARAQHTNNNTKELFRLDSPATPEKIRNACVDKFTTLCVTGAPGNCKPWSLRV
Experimental: (§1) Supplementary Table 1 │ Off-target activity screening f or MCP compou nds […]
(§2) The assays given in the table above were conducted at Eurofins CEREP S A (Celle-Lévescault, France) and were run as single point measurements in duplicates in the presence of 10 µ M of the test compound and reported as percent inhibition of the radioligand signal or control enzymatic activity. n.d., not

CYP2C9 = CYP2C9 (Homo sapiens, UniProt P11712); experiment: CYP inhibition; assay type: in vitro ADME
Chain of CYP2C9 (P11712 whole entry): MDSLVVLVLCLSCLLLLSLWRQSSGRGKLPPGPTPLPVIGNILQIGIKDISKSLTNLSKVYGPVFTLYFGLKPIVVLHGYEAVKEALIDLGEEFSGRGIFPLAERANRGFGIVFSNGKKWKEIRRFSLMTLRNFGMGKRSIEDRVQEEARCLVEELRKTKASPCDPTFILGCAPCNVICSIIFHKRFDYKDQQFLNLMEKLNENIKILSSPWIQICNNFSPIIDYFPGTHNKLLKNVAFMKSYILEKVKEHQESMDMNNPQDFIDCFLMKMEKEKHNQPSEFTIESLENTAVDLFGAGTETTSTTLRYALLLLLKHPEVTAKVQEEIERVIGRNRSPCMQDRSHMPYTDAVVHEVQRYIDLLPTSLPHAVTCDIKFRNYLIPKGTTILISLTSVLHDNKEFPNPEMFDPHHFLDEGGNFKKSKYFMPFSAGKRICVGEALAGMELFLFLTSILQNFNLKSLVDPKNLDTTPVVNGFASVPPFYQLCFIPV

HEK293 cells = experiment: Cell-viability assay (CellTiterGlo); assay type: cell-based; conditions: Homo sapiens, 24 h, 37 °C, 3.125–100 μM, n = 2
Experimental: Compounds were prepared in serial dilutions (3.125–100 μM in 1% DMSO) and transferred to 384-well plates together with a positive (Staurosporine) and a negative (no compound) control. In total, 25 μl of HEK293 cells (ATCC; verified by short tandem repeat PCR and mycoplasma negative) (50,000 cells per ml) were added in either low-serum-containing (0.5% fetal bovine serum (FBS)) or high-serum-containing (12.5% FBS, 1% BSA) medium (Dulbecco’s modified Eagle medium (DMEM), glucose, L-glutamine). The plates were incubated for 24 h at 37 °C and a mixture of CellTiterGlo and DMEM was added to the plates. After incubation at room temperature, the luminescence signal was read using a BioTeK reader and a calculated IC50 was derived from the data.

[1] = Human whole blood haemolysis assay; conditions: human heparinated blood, 10 min 37 °C
Experimental: For the in vitro haemolysis test, blood was provided by Roche medical services through an anonymous blood donation for research program, approved by the Ethics Committee Northwestern Switzerland and Central Switzerland (EKNZ) and collected with informed consent. Blood was collected by venipuncture in ethylenediaminetetraacetic acid (EDTA) and Li-heparin-coated tubes. Plasma was prepared from anticoagulated blood by centrifugation (2,500g; 10 min; at room temperature) and the haematocrit was measured to ensure that it was within normal reference values. Each formulation of compound in saline was added at a concentration of 8 mg ml^−1 into test tubes containing exactly 0.5 ml of heparinated blood to give a final assay volume of 1 ml and a concentration of 4 mg ml^−1 or less (following further dilutions). After incubation in a water bath for 10 min at 37 °C, the tubes were centrifuged (10 min, 1,811g at room temperature) and 100 μl of the supernatant was subsequently transferred into test tubes containing 5 ml Drabkins solution (RANDOX Laboratories) and 1 ml phosphate buffer. Haemoglobin was photometrically determined at 540 nm according to the RANDOX test-kit instructions. The results were expressed as percentage haemolysis extrapolated from an internal standard curve with 0%, 50% and 100% haemolysed blood samples.

A. baumannii [2] = experiment: Neutropaenic mouse thigh infection model; assay type: in vivo
Experimental: An intramuscular inoculation of a bacterial suspension of approximately 10^6 CFU per thigh was used to induce the infection. Treatment started 2 h after infection. […] In the pneumonia model, an intratracheal inoculation of approximately 10^7 CFU per lung was used to induce the infection. Treatment started 2 h after infection. […] Standard of care antibiotic was tested at a single dose in both infection models. GraphPad Prism 8 was used for graphical presentation and to analyse data.

[3] = tested on: GABA-A (benzodiazapine binding site); experiment: Off-target screening (CEREP); set-up: species or system rat; conditions: 10 µM, duplicates
Experimental: as §1, §2

C. albicans ATCC 90028 = conditions: 100%
[4] = tested on: Nicotinic receptor, neuronal; experiment: Off-target screening (CEREP); assay type: binding, human; conditions: 10 µM, duplicates
Experimental: as §1, §2

[5] = tested on: Nicotinic receptor, muscle; experiment: Off-target screening (CEREP); assay type: binding, human; conditions: 10 µM, duplicates
Experimental: as §1, §2

[6] = Mouse pharmacokinetics study, i.v. bolus; assay type: in vivo; conditions: male CD1 mice, 1 mg/kg IV; for Vss / t1/2, terminal plasma half-life: n = 3; for Cl: n = 3, LC-MS, non-compartmental
Experimental: Three male CD1 mice were administered with compound formulation (0.5 mg ml^−1 in 0.9% aqueous sodium chloride solution) as an intravenous bolus dose of 1 mg per kg. Blood was sampled at 0.08, 0.25, 0.5, 1, 2, 4, 7 and 24 h after administration and the blood collecting tubes were centrifuged for 5 min at 5,200g at room temperature to isolate the plasma supernatant. The concentrations of compound in the plasma were analysed using a liquid chromatography–mass spectrometry method with a calibration range of 5–10,000 ng ml^−1. The pharmacokinetic parameters were derived from the individual concentration data and were estimated by non-compartmental analysis.

[7] = Fraction unbound in mouse plasma; assay type: in vitro ADME
A. baumannii [8] = experiment: Immunocompetent mouse septicaemia infection model; assay type: in vivo; conditions: for Survivors, individual mouse status: ACC00445 septicaemia, 80 mg/kg
Experimental: Septicaemia was induced in CD-1 immunocompetent male mice by an intraperitoneal inoculation of a bacterial suspension of the tested A. baumannii isolate at a challenge of approximately 1–2 log[CFU] above the determined median lethal dose (resulting in 10^5 to 10^7 CFU per mouse). […] Mouse survival was followed over 6–7 days. GraphPad Prism 8 was used for graphical presentation of the data. Septicaemia studies with mutant derivative isolates obtained in resistance studies were performed as described above, using a bacterial challenge as determined for the parental isolate.

[9] = murine septicaemia, MDR A. baumannii APV00535 (ACC00535), MCP 0.1 mg/kg, mark per mouse (10 mice), study VDD3948

Chain of CYP3A4 (P08684 whole entry): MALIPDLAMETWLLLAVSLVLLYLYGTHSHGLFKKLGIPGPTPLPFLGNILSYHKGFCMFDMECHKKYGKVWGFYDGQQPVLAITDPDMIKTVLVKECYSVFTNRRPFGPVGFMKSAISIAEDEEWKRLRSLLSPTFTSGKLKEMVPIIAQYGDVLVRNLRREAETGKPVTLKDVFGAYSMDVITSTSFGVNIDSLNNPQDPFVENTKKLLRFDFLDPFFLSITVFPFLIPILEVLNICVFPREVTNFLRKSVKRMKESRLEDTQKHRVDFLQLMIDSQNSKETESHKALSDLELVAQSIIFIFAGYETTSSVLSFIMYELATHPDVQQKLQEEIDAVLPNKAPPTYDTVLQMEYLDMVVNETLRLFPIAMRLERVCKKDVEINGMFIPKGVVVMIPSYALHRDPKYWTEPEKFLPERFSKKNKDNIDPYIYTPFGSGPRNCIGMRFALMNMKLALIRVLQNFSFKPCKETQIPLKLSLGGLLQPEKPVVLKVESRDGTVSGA

SMILES | CYP inh. (3A4) (CYP3A4) | inhibition at 10 µM (Xanthine oxidase; 10 µM, duplicates) [%] | CYP inh. (2C9) (CYP2C9) | IC50 (HEK293 cells) [µM] | percent inhibition [3] [%] | MIC 100% (C. albicans ATCC 90028; Study LGC281440) [µg/mL] | MIC 100% (C. albicans ATCC 90028; Study LGC282160) [µg/mL] | MIC 100% (C. albicans ATCC 90028; Study LGC284879) [µg/mL] | MIC 100% (C. albicans ATCC 90028; Study LGC285582) [µg/mL] | MIC 100% (C. albicans ATCC 90028; Study LGC286210) [µg/mL] | MIC 100% (C. albicans ATCC 90028; Study LGC293598) [µg/mL] | MIC 100% (C. albicans ATCC 90028; Study LGC294355) [µg/mL] | MIC 100% (C. albicans ATCC 90028; Study LGC295147) [µg/mL] | MIC 100% (C. albicans ATCC 90028; Study LGC296813) [µg/mL] | MIC 100% (C. albicans ATCC 90028; Study LGC299544) [µg/mL] | MIC 100% (C. albicans ATCC 90028; Study LGC301026) [µg/mL] | MIC 100% (C. albicans ATCC 90028; Study LGC308175) [µg/mL] | MIC 100% (C. albicans ATCC 90028; Study ROC010) [µg/mL] | percent inhibition [4] [%] | percent inhibition [5] [%] | further results
CN1C(=O)[C@H](CCCN)NC(=O)[C@H](CCCN)NCc2ccccc2Sc2ccccc2CNC(=O)[C@@H]1Cc1c[nH]c2ccccc12 [RO7036668] | 18 µM | -16 | > 50 µM | > 100 |  |  |  |  |  |  |  |  |  |  |  |  |  |  |  |  | 
CN1C(=O)[C@H](CCCCN)NC(=O)[C@H](CCCN)NCc2cccnc2Sc2c(Cl)ccc(Cl)c2CNC(=O)[C@@H]1Cc1c[nH]c2ccccc12 [RO7075573] | 16 µM |  | > 50 µM | > 100 | -20 | 64 (≈ 86.5 µM) | >64 | >64 | >64 | >64 | >64 | >64 | >64 | >64 | >64 | >64 | >64 | >64 | -7 | 5 | inhibition at 10 µM (Xanthine oxidase): 6%; Haemolysis ([1]; 4 mg/mL, haemoglobin at 540 nm): 37%; Decrease in thigh bacterial burden (A. baumannii [2]; ACC00535, neutropaenic mice, s.c. every 4 h for 24 h): > 4 log CFU; MIC 100% (C. albicans ATCC 90028; Study ROC012): >64 µg/mL; Vss [6]: 0.3 L/kg; t1/2, terminal plasma half-life [6]: 2 h; Cl [6]: 5.7 mL/min/kg; fu (m), fraction unbound in mouse plasma [7]: 17%; Protection in lethal sepsis model (A. baumannii [8]; ACC00535, immunocompetent mice, s.c. doses between 0.1 and 0.3 mg per kg at 1 h and 5 h): complete protection; Survivors, 2016-02-03 (A. baumannii [8]; murine septicaemia, MDR A. baumannii APV00535 (ACC00535), MCP 0.01 mg/kg, mark per mouse (10 mice), study VDD3948): 1; Survivors, 2016-02-03 (A. baumannii [8]; murine septicaemia, MDR A. baumannii APV00535 (ACC00535), MCP 0.03 mg/kg, mark per mouse (10 mice), study VDD3948): 1; Survivors, 2016-02-03 (A. baumannii [8]; [9]): 1; Survivors, 2016-02-04 (A. baumannii [8]; [9]): 1
CN1C(=O)[C@H](CCCCN)NC(=O)[C@H](CCCN)NCc2cccnc2Sc2c(Cl)ccc(-c3ccc(C(=O)O)cc3)c2CNC(=O)[C@@H]1Cc1c[nH]c2ccccc12 [RO7202110] | >50 (3A4) >50 (2C9) >50 (2D6) μM | 0 | >50 (3A4) >50 (2C9) >50 (2D6) μM | > 100 | 14 |  |  |  |  |  |  |  |  |  |  |  |  |  | 4 | 11 | Haemolysis [1]: None; Vss [6]: 0.9 L/kg; t1/2, terminal plasma half-life [6]: 0.2 h; Cl [6]: 84 mL/min/kg; fu (m), fraction unbound in mouse plasma [7]: 10%
C[C@@H](O)[C@H]1C(=O)N2C(C(=O)O)=C(S[C@@H]3CN[C@H](C(=O)N(C)C)C3)[C@H](C)[C@H]12 [meropenem, reference compound] |  |  |  |  |  | >64 | >64 | >64 | >64 | >64 | >64 | >64 | >64 | >64 | >64 | >64 | >64 | >64 |  |  | delta 24 hr (A. baumannii [2]; A. baumannii ACC00535 (APV00535), neutropenic mice, MERO 100 mg/kg, 24 h, change of average log CFU/thigh vs vehicle at 24 h): 0.67; Thigh bacterial burden outcome (A. baumannii [2]; ACC00535, neutropaenic mice): bacterial outgrowth; MIC 100% (C. albicans ATCC 90028; Study LGC277937): >64 µg/mL; MIC 100% (C. albicans ATCC 90028; Study LGC279800): >64 µg/mL; MIC 100% (C. albicans ATCC 90028; Study LGC282623): >64 µg/mL; MIC 100% (C. albicans ATCC 90028; Study LGC283932): >64 µg/mL; MIC 100% (C. albicans ATCC 90028; Study LGC284200): >64 µg/mL; MIC 100% (C. albicans ATCC 90028; Study ROC003): >64 µg/mL; MIC 100% (C. albicans ATCC 90028; Study ROC004): >64 µg/mL; MIC 100% (C. albicans ATCC 90028; Study ROC005): >64 µg/mL; MIC 100% (C. albicans ATCC 90028; Study ROC006): >64 µg/mL; MIC 100% (C. albicans ATCC 90028; Study ROC008): >64 µg/mL; MIC 100% (C. albicans ATCC 90028; Study ROC009): >64 µg/mL; MIC 100% (C. albicans ATCC 90028; Study ROC013): >64 µg/mL; Survivors, individual mouse status (A. baumannii [8]; Day 1): 1; Survivors, individual mouse status (A. baumannii [8]; Day 2): 1; Survivors, 2016-02-03 (A. baumannii [8]; murine septicaemia, MDR A. baumannii APV00535 (ACC00535), Meropenem 80 mg/kg, mark per mouse (10 mice), study VDD3948): 1
